In patent US20250360235A1, “RADI[…] AND METHOD FOR RADIOLABELLING” (Telix Innovations SA, priority 2024, published 2025):

Test: pH of [68Ga]PSMA-11 solution (acceptance 4.0-5.0)
Format: physicochemical
Conditions: for pH of the gallium-68 labelled PSMA-11 solution: immediately after the radiolabelling procedure
Procedure: (§1) 100 μl of the ascorbic acid solution (equivalent to 25 mg ascorbic acid) was taken from vial 3, and was filtered through a 5 μm filter needle. The sodium ascorbate solution was subsequently added to vail 2, and mixed thoroughly. The obtained content of vial 2 was added to vial 1, and again mixed thoroughly. To this obtained vail 1, the eluate, comprising the gallium-68, was added to obtain a gallium-68 labelled PSMA-11 solution. Optionally, a 2.5 ml 0.9% sodium chloride solution may be added to increase the volume and/or to amend the osmolality to be under 1000 mOsm/kg.
The pH of the gallium-68 labelled PSMA-11 solution was 4.5 immediately after the radiolabelling procedure and was unchanged after 4 hours.
as §1, with “a Gallium-68” for “a gallium-68”, “a” for “a 2.5 ml 0.9%”, “volume of the obtained Gallium-68 labelled PSMA-11 solution” for “volume”, “mOsm/kg. The pH of the gallium-68 labelled PSMA-11 solution was 4.5 immediately after the radiolabelling procedure and was unchanged after 4 hours.” for “mOsm/kg.”
as §1, with “a Gallium-68” for “a gallium-68”, “a” for “a 2.5 ml 0.9%”, “volume of the obtained Gallium-68 labelled PSMA-11 solution” for “volume”, “mOsm/kg. The pH of the gallium-68 labelled PSMA-11 solution was 4.5 immediately after the radiolabelling procedure and was unchanged after 6 hours.” for “mOsm/kg.”
Table 1 to Table 5 show the results of various radiolabelling experiments on radiochemical purity and the chelation yield. The radiolabelling experiments in the tables are carried out as described in: • Example 1 for when the gallium-68 source is GE Liquid target generator and EZAG GalliaPharm generator; • Example 2 for when the gallium-68 source is IRE Galli Eo generator; • Example 3 for when the gallium-68 source is GE solid target generator;
However, the experiments were carried out with the amount of ascorbic acid as indicated in the Tables 1 to 5, and the activity as indicated in the Tables 1 to 5. Radiochemical purities were measured at various times (T0, T1, T4, T6) after the radiolabelled experiments have been conducted.
The kits of Example 1, Example 2 or Example 3, with amounts of ascorbic acid as set out in Table 7 were used in the experiments for the ascorbic acid bracketing matrix. Three strengths of [^68Ga]Ga-PSMA-11 will be tested, i.e. 50 mCi/ml, 7 mCi/ml and 1 mCi/ml. Radiochemical purity was determined at different time points (TO, T1, T4 or T6), as set out in Table 7.

In the case of `O=C([O-])CN(CCN(CC(=O)[O-])Cc1cc(CCC(=O)NCCCCCC(=O)NCCCC[C@H](NC(=O)N[C@@H](CCC(=O)O)C(=O)O)C(=O)O)ccc1[O-])Cc1cc(CCC(=O)O)ccc1[O-].[68Ga+3].[OH3+]` [[^68Ga]PSMA-11, gallium-68 radiolabelled Glu-urea-Lys-HBED-CC (gozetotide or PSMA-11)], the pH (1 mg ascorbic acid, 58.7-71.1 mCi, 7.47-8.99 mCi/mL, GE Liquid target, n=3, T0) is reported as “C (C = conforms to specifications)”, the pH (1 mg ascorbic acid, 58.7-71.1 mCi, 7.47-8.99 mCi/mL, GE Liquid target, n=3, T4 (4 h)) is reported as “C (C = conforms to specifications)” and the pH (2.5 mg ascorbic acid, 49.9-76.9 mCi, 6.31-9.72 mCi/mL, GE Liquid target, n=3, T0) is reported as “C (C = conforms to specifications)”. The pH (2.5 mg ascorbic acid, 49.9-76.9 mCi, 6.31-9.72 mCi/mL, GE Liquid target, n=3, T4 (4 h)) was “C (C = conforms to specifications)”, the pH (5 mg ascorbic acid, 60-69.9 mCi, 7.61-8.81 mCi/mL, 3 × GE Liquid Target, 3 × EZAG GalliaPharm, n=6, T0) was “C (C = conforms to specifications)” and the pH (5 mg ascorbic acid, 60-69.9 mCi, 7.61-8.81 mCi/mL, 3 × GE Liquid Target, 3 × EZAG GalliaPharm, n=6, T4 (4 h)) was “C (C = conforms to specifications)”. For the same compound, the pH (10 mg ascorbic acid, 458-500 mCi, 43.4-47.3 mCi/mL, GE Solid Target, n=3, T0) was “C (C = conforms to specifications)”, the pH (10 mg ascorbic acid, 458-500 mCi, 43.4-47.3 mCi/mL, GE Solid Target, n=3, T4 (4 h)) was “C (C = conforms to specifications)” and the pH (10 mg ascorbic acid, 514-520 mCi, 49.0-66.1 mCi/mL, GE Solid Target, n=3, T0) was “C (C = conforms to specifications)”. For the same compound, the pH (10 mg ascorbic acid, 514-520 mCi, 49.0-66.1 mCi/mL, GE Solid Target, n=3, T6 (6 h)) was “C (C = conforms to specifications)”, the pH (15 mg ascorbic acid, 10.0-18.4 mCi, 0.95-1.77 mCi/mL, 1 × EZAG GalliaPharm, 2 × IRE Galli Eo, n=3, T0) was “C (C = conforms to specifications)” and the pH (15 mg ascorbic acid, 10.0-18.4 mCi, 0.95-1.77 mCi/mL, 1 × EZAG GalliaPharm, 2 × IRE Galli Eo, n=3, T1 (1 h)) was “C (C = conforms to specifications)”. The pH (15 mg ascorbic acid, 23.7-47.6 mCi, 2.26-4.53 mCi/mL, 1 × EZAG GalliaPharm, 2 × IRE Galli Eo, n=3, T0) was “C (C = conforms to specifications)”, the pH (15 mg ascorbic acid, 23.7-47.6 mCi, 2.26-4.53 mCi/mL, 1 × EZAG GalliaPharm, 2 × IRE Galli Eo, n=3, T4 (4 h)) was “C (C = conforms to specifications)” and the pH (20 mg ascorbic acid, 514-544 mCi, 48.3-51.9 mCi/mL, GE Solid Target, n=2, T0) was “C (C = conforms to specifications)”. The pH (20 mg ascorbic acid, 514-544 mCi, 48.3-51.9 mCi/mL, GE Solid Target, n=2, T6 (6 h)) was “C (C = conforms to specifications)”, the pH (25 mg ascorbic acid, 10.2 mCi, 0.97 mCi/mL, IRE Galli Eo, n=1, T0) was “C (C = all results conform to specifications)” and the pH (25 mg ascorbic acid, 10.2 mCi, 0.97 mCi/mL, IRE Galli Eo, n=1, T1 (1 h)) was “C (C = all results conform to specifications)”. The pH (25 mg ascorbic acid, 19.5-20.0 mCi, 1.85-1.90 mCi/mL, EZAG GalliaPharm, n=2, T0) was “C (C = all results conform to specifications)”, the pH (25 mg ascorbic acid, 19.5-20.0 mCi, 1.85-1.90 mCi/mL, EZAG GalliaPharm, n=2, T1 (1 h)) was “C (C = all results conform to specifications)” and the pH (25 mg ascorbic acid, 23.3-24 mCi, 2.22-2.28 mCi/mL, IRE Galli Eo, n=2, T0) was “C (C = all results conform to specifications)”. For the same compound, the pH (25 mg ascorbic acid, 23.3-24 mCi, 2.22-2.28 mCi/mL, IRE Galli Eo, n=2, T4 (4 h)) was “C (C = all results conform to specifications)”, the pH (25 mg ascorbic acid, 46.0-46.1 mCi, 4.38-4.39 mCi/mL, EZAG GalliaPharm, n=2, T0) was “C (C = all results conform to specifications)” and the pH (25 mg ascorbic acid, 46.0-46.1 mCi, 4.38-4.39 mCi/mL, EZAG GalliaPharm, n=2, T4 (4 h)) was “C (C = all results conform to specifications)”. The pH (50 mg ascorbic acid, 560 mCi, 71.1 mCi/mL, GE Solid Target, n=1, T0) was “C (C = conforms to specifications)”, the pH (50 mg ascorbic acid, 560 mCi, 71.1 mCi/mL, GE Solid Target, n=1, T6 (6 h)) was “C (C = conforms to specifications)” and the “pH of the gallium-68 labelled PSMA-11 solution” value (Example 1 kit (25 mg ascorbic acid; EZAG GalliaPharm or GE Liquid, 60-70 mCi)) was 4.5. For the same compound, the “pH of the gallium-68 labelled PSMA-11 solution, change” value (“pH … change” below) (Example 1 kit, after 4 hours) was “unchanged”, the “pH of the gallium-68 labelled PSMA-11 solution” value (Example 2 kit (25 mg ascorbic acid; IRE Galli Eo, 60-70 mCi)) was 4.5 and the “pH … change” value (Example 2 kit, after 4 hours) was “unchanged”. The “pH of the gallium-68 labelled PSMA-11 solution” value (Example 3 kit (25 mg ascorbic acid; solid target, 350-600 mCi)) was 4.5, the “pH … change” value (Example 3 kit, after 6 hours) was “unchanged” and the pH (bracketing ~1 mCi/mL, 18.75 mg ascorbic acid, 8.9-11.5 mCi, 0.85-1.09 mCi/mL, IRE Galli Eo, n=2, T0) was “C (C = Conforms to specifications)”. The pH (bracketing ~1 mCi/mL, 18.75 mg ascorbic acid, 8.9-11.5 mCi, 0.85-1.09 mCi/mL, IRE Galli Eo, n=2, T1 (1 h)) was “C (C = Conforms to specifications)”, the pH (bracketing ~1 mCi/mL, 25 mg ascorbic acid, 8.8-12.7 mCi, 0.84-1.21 mCi/mL, 2 × IRE Galli Eo, n=2, T0) was “C (C = Conforms to specifications)” and the pH (bracketing ~1 mCi/mL, 25 mg ascorbic acid, 8.8-12.7 mCi, 0.84-1.21 mCi/mL, 2 × IRE Galli Eo, n=2, T1 (1 h)) was “C (C = Conforms to specifications)”. For the same compound, the pH (bracketing ~1 mCi/mL, 31.25 mg ascorbic acid, 15.2-26.9 mCi, 1.44-2.54 mCi/mL, EZAG GalliaPharm, n=2, T0) was “C (C = Conforms to specifications)”, the pH (bracketing ~1 mCi/mL, 31.25 mg ascorbic acid, 15.2-26.9 mCi, 1.44-2.54 mCi/mL, EZAG GalliaPharm, n=2, T1 (1 h)) was “C (C = Conforms to specifications)” and the pH (bracketing ~7 mCi/mL, 18.75 mg ascorbic acid, 51.0-58.0 mCi, 5.55-6.5 mCi/mL, IRE Galli Eo, n=2, T0) was “C (C = Conforms to specifications)”. For the same compound, the pH (bracketing ~7 mCi/mL, 18.75 mg ascorbic acid, 51.0-58.0 mCi, 5.55-6.5 mCi/mL, IRE Galli Eo, n=2, T4 (4 h)) was “C (C = Conforms to specifications)” and the pH (bracketing ~7 mCi/mL, 25 mg ascorbic acid, 51.6-74.4 mCi, 4.56-6.92 mCi/mL, 3 × GE Liquid Target, 3 × IRE Galli Eo, 3 × EZAG GalliaPharm, n=9, T0) was “C (C = Conforms to specifications)”.
